In patent publication US20250090823A1, “MICRONEEDLE PATCH FOR ENHANCING ACCUMULATION OF PROTOPORPHYRIN IX IN SOLID TUMOR AND PREPARATION METHOD THEREFOR” (SHENZHEN UNIVERSITY, priority 2022, published 2025):

Legend:
A375 melanoma cells = experiment: PpIX accumulation (mass) generated in A375 tumor cell by different nanoparticles; format: cell-based; settings: same concentration of 5-ALA (10.8 μg mL^−1)
Description: The biological effects of MN-CCPCA in accumulating PpIX in a cell and an in-vivo tumor are studied.

A375 tumor cell = experiment: Dynamic PpIX fluorescence in A375 tumor cell by high-content fluorescence microscopy; format: cell-based; settings: equal amount of 5-ALA, time after hatching (incubation)
Description: The dynamic fluorescence value of PpIX generated by an in-vivo cell is monitored in real time by high-content fluorescence microscopy.

[1] = tested on: subcutaneous U87MG glioblastoma; experiment: Tumor-volume inhibition after 3 repeated PDT, subcutaneous U87MG glioblastoma model; format: in vivo, mouse; settings: 50 mg/kg CCPCA NPs, 3.4 mg/kg 5-ALA, 635 nm laser 10 min at 6, 12, 24 h, 14 days
Description: A specific characterization method is as follows: 20 U87MG model tumor mice with a tumor size of 100 mm^3 are equally divided into 4 experimental groups, namely the MN (+) group with blank microneedle and irradiated with laser, the 5-ALA i.v (+) group with tail intravenous injected with 5-ALA and irradiated with laser, the MN-5-ALA (+) group with 5-ALA microneedle delivery and irradiated with laser, the MN-CCPCA (+) group with transdermal microneedle loaded with 5-ALA and CAT using nanoparticles and irradiated with lase. The doses administered are 50 mg/kg of CCPCA NPs and 3.4 mg/kg of 5-ALA. The mice in the laser treatment group are irradiated with a laser with a wavelength of 635 nm for 10 minutes (200 mW/cm^2) at 6, 12, and 24 h, respectively. The volume of mouse tumor in each group on different days (0, 2, 4, 6, 8, 10, 12, 14) is measured by a vernier caliper.

[2] = tested on: 4T1 breast cancer subcutaneous tumor; experiment: Tumor-volume inhibition after PDT, 4T1 breast cancer subcutaneous tumor model; format: in vivo, mouse; settings: 50 mg/kg CCPCA NPs, 3.4 mg/kg 5-ALA, 635 nm laser 10 min at 12, 24, 36 h, 14 days
Description: A specific characterization method is as follows: 20 4T1 model tumor mice with a tumor size of 100 mm^3 are equally divided into 4 experimental groups, namely the MN (+) group with blank microneedle and irradiated with laser, the 5-ALA i.v (+) group with tail intravenous injected with 5-ALA and irradiated with laser, the MN-5-ALA (+) group with 5-ALA microneedle delivery and irradiated with laser, the MN-CCPCA (+) group with transdermal microneedle loaded with 5-ALA and CAT using nanoparticles and irradiated with lase. The mice in the laser treatment group are irradiated with a laser with a wavelength of 635 nm for 10 minutes (200 mW/cm^2) at 12, 24, and 36 h, respectively. The doses administered are 50 mg/kg of CCPCA NPs and 3.4 mg/kg of 5-ALA. The volume of mouse tumor in each group on different days (0, 2, 4, 6, 8, 10, 12, 14) is measured by a vernier caliper.

[3] = background statement; cited from earlier work

| SMILES | intracellular PpIX content (A375 melanoma cells) [ng/10^6 cells] | time at which PpIX concentration/intensity in the cell reaches the maximum (A375 tumor cell) [h] | tumor growth inhibition rate [1] [%] | tumor growth inhibition rate [2] [%] | time of rapid clearance of PpIX in vivo [3] [h] | time to highest peak of PpIX synthesis in vivo [3] |
| --- | --- | --- | --- | --- | --- | --- |
| NCC(=O)CCC(=O)O [5-ALA, 5-aminolevulinic acid] | 35.1±3.3 | 6 | 19.1 | 27.5 |  |  |
| C=CC1=C(C)c2cc3[nH]c(cc4nc(cc5[nH]c(cc1n2)c(C)c5CCC(=O)O)C(CCC(=O)O)=C4C)c(C)c3C=C [PpIX, Protoporphyrin IX] |  |  |  |  | ≤ 12 | about 4 hours |
